Measurements from patent US6146853A, “Cyclic depsipeptide PF 1022G” (Meiji Seika Kaisha Ltd., priority 1996, dated 2000).

Legend:
[1] = Solubilities (physico-chemical properties); assay type: physicochemical
[2] = Anthelmintic activities (general statement); details: no parasite or test named

In the case of CC(C)C[C@H]1C(=O)O[C@H](C)C(=O)N(C)[C@@H](CC(C)C)C(=O)O[C@H](C)C(=O)N(C)[C@@H](CC(C)C)C(=O)O[C@H](C)C(=O)N(C)[C@@H](CC(C)C)C(=O)O[C@H](C)C(=O)N1C [PF 1022F substance], the “Solubilities: soluble in” value ([1]; chloroform, acetone, ethyl acetate, methanol and dimethylsulfoxide) is reported as “Soluble”, the “Solubilities: insoluble in” value ([1]; water and n-hexane) is reported as “Insoluble” and the solubility in water ([1]; water, statement in the recovery description) is reported as “insoluble in water”. For the same compound, the anthelmintic activities [2] was “having anthelmintic activities”.
